We go through twelve molecules from patent US10221144B2, “Antibacterial compounds having broad spectrum of activity” (priority 2014, dated 2019).

One may read the IC50 as the point on the concentration scale where inhibition reaches its midpoint. Usually inhibition stands for the relative decrease from the control value, in per cent.

What all share (type): biochemical
One assay deals with T1, E. coli DNA gyrase (Escherichia coli, UniProt P0AES4+P0AES6).
T1 construct: purchased Inspiralis, UK
Briefly: DNA gyrase supercoiling assay (E. coli). The conditions noted are these: for inhibition at 50 µM: E. coli, conc. 50 μM, n/a = not active. The method, boiled down: (§1)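 Relaxed pBR322 (0.5 μg) supercoiled by E. coli (2 U) or S. aureus (1 U) gyrase, 30 min at 37° C; compounds at single 200, 100 or 50 μM, duplicate. Supercoiled band quantified on ethidium-stained agarose gel, expressed as % inhibition vs DMSO control; IC50 by two-parameter exponential decay fit.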

Assay [1] has as its target T2, S. aureus Topoisomerase IV (Staphylococcus aureus, UniProt P0C1S7+P0C1U9).
T2 construct: purchased Inspiralis, UK
Briefly: Topoisomerase IV decatenation assay (S. aureus). The conditions noted are these: for inhibition at 50 µM: read-out: % inhibition Topo IV. The method, then:
The above compounds were tested for the inhibition of the enzyme DNA gyrase in a gyrase supercoiling assay and for the inhibition of the enzyme topoisomerase IV in a decatenation assay, in both Gram positive and Gram negative bacteria, according to the following methods.
Both the assays were carried out according to a set-up method modified from the article to Blanche F, et al. “Differential Behaviors of Staphylococcus aureus and Escherichia coli Type II DNA Topoisomerases”, Antimicrob. Agents Chemother., 1996, Vol. 40, No. 12 p. 2714-2720.
The compounds were screened at single concentration (200, 100 or 50 μM), in duplicate.
S. aureus and E. coli Topoisomerase IV decatenation kits (Inspiralis, UK) were used. A master mix with a total volume sufficient for the number of reactions to perform was prepared with the following reagents: 5× assay buffer (50 mM HEPES-KOH (pH 7.6), 100 mM potassium glutamate, 10 mM magnesium acetate, 10 mM DTT, 1 mM ATP, 50 μg/ml albumin), kDNA substrate (200 ng/reaction), RNase-DNase free water. Aliquots of this mix were dispensed in each tube, then 10× compound stock solutions or vehicle control (DMSO), were added in each reaction tube.
Reaction was started with Topoisomerase IV enzyme (0.5 U/reaction) addition.
A sample added with an equal volume of dilution buffer was used as negative control (without enzyme).
The reaction tubes were gentle vortexed and incubated 30 minutes at 37° C. Each reaction was stopped by adding 30 μl of Stop Buffer and 30 μl of chloroform/isoamyl alcohol (24/1), briefly vortexed for 5-10 seconds and centrifuged at 20000×g for 2 minutes. Samples taken from the upper phase were loaded into 1% agarose gel and subjected to electrophoresis for 1 hour at 80V constant voltage in TAE (40 mM Tris-acetate, 2 mM EDTA).
Data acquisition and analysis. Due to the high molecular mass, kDNA could not enter an agarose gel under normal electrophoresis conditions, but remained in the wells. In the presence of Topo IV topoisomerase mini-circles (2.5 Kb) were released from kDNA by decatenation and were quickly and easily resolved in the gel at relatively high voltages.
Bands were visualized by ethidium bromide staining (dil 1:20000) for 30 minutes followed by destaining in distilled water for 10 minutes.
For single concentration screening assay, in order to evaluate the compounds activity on the enzymes, the bands of decatenated DNAs in the gel were photographed by a digital imaging system ImageQuant LAS 4000 (GE Healthcare) according to manufacturer's instructions.
The fluorescent intensity of each band was analyzed by ImageQuant TL software and it was expressed as volume (volume of the uncalibrated quantity of material in the image feature after subtraction of the background intensity by using rolling ball method).
Each band intensity was compared, as percentage, to vehicle sample band intensity, which served as positive control, on the same gel.
Inhibitory activity was expressed as percent of inhibition versus the positive control.
The supercoiled or decatenated DNA bands obtained as described in Example 1 were analysed as follows.
Bands were analyzed by gel documentation equipment (Syngene, Cambridge, UK) and quantitated using Syngene Gene Tools software. Raw gel data (fluorescent band volumes) collected from Syngene, GeneTools gel analysis software were converted to a percentage of the 100% control (the fully supercoiled or decatenated DNA band). […] The IC50 data were calculated by using the global curve fit non-linear regression tool by selecting the Single, 2 Parameter fit function from the Exponential Decay equation category.

A further assay has as its target T3, S. aureus DNA gyrase (Staphylococcus aureus, UniProt P0A0K8+P20831).
T3 construct: purchased Inspiralis, UK
Briefly: DNA gyrase supercoiling assay (S. aureus). The conditions noted are these: for inhibition at 50 µM: S. aureus, conc. 50 μM, n/a = not active. The method, boiled down: as §1

Another assay deals with T4, E. coli Topoisomerase IV (Escherichia coli, UniProt P0AFI2+P20083).
T4 construct: purchased Inspiralis, UK
Briefly: Topoisomerase IV decatenation assay (E. coli). The conditions noted are these: for inhibition at 50 µM: E. coli, conc. 50 μM, n/a = not active, read-out: % inhibition Topo IV. The essentials: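 Topo IV decatenation of kDNA (200 ng) with 0.5 U enzyme in HEPES-KOH pH 7.6 buffer containing 1 mM ATP and Mg acetate, 30 min at 37 °C. Single-concentration screen (200, 100 or 50 μM) in duplicate. Decatenated minicircles resolved on agarose, ethidium-stained band intensity expressed as % inhibition versus vehicle; IC50 from exponential-decay curve fit.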

The mark [2] stands for this setting: S. aureus, conc. 50 μM, n/a = not active.
[3] abbreviates: S. aureus, concentration-response curve, eight half-log concentrations 0.1 to 300 μM, read-out: IC50 Topo IV.

Structures can show the parent of a compound that is named as a salt. Where two headings read alike, the source gives them in different places.

T2 sequence (P0C1S7 whole entry): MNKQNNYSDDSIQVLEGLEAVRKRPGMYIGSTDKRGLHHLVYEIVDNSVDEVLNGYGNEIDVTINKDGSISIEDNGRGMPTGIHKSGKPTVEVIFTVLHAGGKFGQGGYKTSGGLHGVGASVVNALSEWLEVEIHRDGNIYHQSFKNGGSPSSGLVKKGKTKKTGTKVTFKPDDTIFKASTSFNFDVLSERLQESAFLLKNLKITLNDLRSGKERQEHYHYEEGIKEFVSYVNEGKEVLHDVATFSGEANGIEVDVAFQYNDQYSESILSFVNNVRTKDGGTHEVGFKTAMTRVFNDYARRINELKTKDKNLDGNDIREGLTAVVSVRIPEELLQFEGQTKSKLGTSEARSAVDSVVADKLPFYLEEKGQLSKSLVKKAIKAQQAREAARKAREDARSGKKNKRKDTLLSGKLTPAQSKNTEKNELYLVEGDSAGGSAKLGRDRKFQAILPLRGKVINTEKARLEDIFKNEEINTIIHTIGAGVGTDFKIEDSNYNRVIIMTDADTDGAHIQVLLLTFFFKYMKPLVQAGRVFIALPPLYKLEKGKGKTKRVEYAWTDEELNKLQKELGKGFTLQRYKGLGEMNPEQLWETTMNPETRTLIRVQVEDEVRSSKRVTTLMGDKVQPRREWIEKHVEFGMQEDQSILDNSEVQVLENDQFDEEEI
T2 sequence (P0C1U9 whole entry): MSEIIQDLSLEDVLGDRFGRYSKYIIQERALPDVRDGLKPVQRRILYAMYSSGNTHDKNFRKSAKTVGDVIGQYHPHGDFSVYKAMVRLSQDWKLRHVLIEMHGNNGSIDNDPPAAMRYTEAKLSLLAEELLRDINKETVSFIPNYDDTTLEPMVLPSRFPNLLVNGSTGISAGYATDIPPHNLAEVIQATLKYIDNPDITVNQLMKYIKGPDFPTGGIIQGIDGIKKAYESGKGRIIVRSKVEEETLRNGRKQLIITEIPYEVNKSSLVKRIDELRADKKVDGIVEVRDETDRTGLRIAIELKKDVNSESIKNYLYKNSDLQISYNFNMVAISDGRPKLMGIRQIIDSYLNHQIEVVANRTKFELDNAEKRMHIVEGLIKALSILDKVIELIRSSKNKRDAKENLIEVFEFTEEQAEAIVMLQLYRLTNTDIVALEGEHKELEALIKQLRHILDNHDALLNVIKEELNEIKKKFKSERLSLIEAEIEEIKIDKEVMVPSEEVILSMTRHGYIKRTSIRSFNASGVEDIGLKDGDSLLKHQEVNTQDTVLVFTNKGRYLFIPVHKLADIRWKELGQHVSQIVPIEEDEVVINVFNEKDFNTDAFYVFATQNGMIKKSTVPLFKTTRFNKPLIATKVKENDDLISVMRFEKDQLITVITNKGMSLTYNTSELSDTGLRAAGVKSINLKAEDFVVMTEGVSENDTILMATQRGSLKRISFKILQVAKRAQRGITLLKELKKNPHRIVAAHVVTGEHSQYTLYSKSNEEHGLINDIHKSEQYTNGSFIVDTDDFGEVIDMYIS
T1 sequence (P0AES4 whole entry, one chain of several): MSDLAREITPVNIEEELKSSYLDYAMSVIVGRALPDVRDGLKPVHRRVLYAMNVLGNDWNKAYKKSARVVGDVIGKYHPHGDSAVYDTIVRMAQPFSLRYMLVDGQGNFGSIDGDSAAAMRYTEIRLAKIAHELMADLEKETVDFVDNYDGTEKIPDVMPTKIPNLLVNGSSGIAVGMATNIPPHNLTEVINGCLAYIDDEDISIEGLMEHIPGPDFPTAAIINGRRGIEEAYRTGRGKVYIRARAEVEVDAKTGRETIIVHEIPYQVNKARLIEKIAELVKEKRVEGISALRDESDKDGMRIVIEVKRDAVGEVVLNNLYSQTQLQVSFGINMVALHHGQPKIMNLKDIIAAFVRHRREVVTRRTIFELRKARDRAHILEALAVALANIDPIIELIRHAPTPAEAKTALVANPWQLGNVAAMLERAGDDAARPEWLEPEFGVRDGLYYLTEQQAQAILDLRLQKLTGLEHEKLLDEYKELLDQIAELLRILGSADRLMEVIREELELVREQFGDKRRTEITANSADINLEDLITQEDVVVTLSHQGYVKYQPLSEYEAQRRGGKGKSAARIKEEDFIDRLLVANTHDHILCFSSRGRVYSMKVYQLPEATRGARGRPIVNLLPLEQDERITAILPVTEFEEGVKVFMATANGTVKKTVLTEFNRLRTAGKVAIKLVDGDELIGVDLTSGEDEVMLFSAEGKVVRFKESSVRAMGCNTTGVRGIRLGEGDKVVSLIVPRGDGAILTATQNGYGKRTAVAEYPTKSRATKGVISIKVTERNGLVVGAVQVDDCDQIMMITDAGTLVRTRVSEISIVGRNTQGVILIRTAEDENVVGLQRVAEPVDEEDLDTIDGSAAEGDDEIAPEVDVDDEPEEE
T4 sequence (P20083 whole entry): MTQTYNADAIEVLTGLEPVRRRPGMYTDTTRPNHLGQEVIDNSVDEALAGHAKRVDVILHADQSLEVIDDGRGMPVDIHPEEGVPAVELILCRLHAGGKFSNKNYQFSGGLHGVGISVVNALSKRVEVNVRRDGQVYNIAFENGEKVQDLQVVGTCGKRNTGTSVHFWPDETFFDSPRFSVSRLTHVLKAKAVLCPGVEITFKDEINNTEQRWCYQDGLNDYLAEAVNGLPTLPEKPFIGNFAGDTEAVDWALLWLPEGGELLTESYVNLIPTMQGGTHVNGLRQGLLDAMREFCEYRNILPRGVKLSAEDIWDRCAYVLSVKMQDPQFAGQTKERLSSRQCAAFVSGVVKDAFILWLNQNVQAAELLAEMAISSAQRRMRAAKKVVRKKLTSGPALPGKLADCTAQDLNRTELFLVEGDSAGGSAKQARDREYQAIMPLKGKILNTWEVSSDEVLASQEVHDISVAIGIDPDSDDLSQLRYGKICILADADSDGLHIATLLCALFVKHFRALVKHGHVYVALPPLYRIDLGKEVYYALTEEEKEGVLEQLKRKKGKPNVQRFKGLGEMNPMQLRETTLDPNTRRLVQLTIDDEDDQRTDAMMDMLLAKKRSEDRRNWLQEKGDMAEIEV
T4 sequence (P0AFI2 whole entry): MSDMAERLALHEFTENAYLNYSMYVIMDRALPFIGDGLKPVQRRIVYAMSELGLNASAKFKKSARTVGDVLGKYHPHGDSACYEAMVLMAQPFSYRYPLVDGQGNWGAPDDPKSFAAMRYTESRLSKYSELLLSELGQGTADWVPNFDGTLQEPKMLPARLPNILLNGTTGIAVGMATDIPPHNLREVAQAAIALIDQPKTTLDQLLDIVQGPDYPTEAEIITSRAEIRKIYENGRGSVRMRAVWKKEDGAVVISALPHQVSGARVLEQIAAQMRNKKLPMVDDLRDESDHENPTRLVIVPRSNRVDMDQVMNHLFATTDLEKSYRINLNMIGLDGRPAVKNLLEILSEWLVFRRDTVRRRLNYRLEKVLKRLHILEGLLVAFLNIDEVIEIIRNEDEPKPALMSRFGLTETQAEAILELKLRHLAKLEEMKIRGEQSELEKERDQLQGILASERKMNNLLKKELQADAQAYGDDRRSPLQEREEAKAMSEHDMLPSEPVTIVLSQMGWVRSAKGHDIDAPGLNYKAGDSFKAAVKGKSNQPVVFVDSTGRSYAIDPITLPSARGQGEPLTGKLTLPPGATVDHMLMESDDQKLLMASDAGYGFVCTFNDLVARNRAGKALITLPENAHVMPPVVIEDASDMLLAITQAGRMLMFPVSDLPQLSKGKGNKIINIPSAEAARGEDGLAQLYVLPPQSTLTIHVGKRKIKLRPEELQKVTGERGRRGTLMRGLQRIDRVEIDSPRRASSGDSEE

On to `O=c1nc(NCC(O)CN2CCN(c3nc(F)cc4ccc(OC(F)(F)F)cc34)CC2)c2cc(F)ccc2o1` (stereo not shown) [Compound 155, 6-fluoro-4-[(3-{4-[3-fluoro-7-(trifluoromethoxy)isoquinolin-1-yl]piperazin-1-yl}-2-hydroxypropyl)amino]-2H-1,3-benzoxazin-2-one], for which the concentration for half-maximal inhibition (IC50) on E. coli DNA gyrase was 6310 nM; in assay [1] (setting [3]), 7210 nM; on S. aureus DNA gyrase, 8740 nM. Also, the inhibition at 50 µM stood at 60% on E. coli DNA gyrase, 50% in assay [1] (setting [2]), 50% on S. aureus DNA gyrase and 0% on E. coli Topoisomerase IV.

Take `O=c1nc(NCC(O)CN2CCN(c3nccc4nccnc34)CC2)c2cc(F)ccc2o1` (stereo not shown) [Compound 156, 6-fluoro-4-((2-hydroxy-3-(4-(pyrido[3,4-b]pyrazin-5-yl)piperazin-1-yl)propyl)amino)-2H-benzo[e][1,3]oxazin-2-one]: the IC50 at E. coli DNA gyrase is 2740 nM; in assay [1] (setting [3]) it was 1250 nM; on S. aureus DNA gyrase it was 1760 nM; against E. coli Topoisomerase IV, 640 nM. Further, the inhibition at 50 µM came out at 78% against E. coli DNA gyrase, 86% in assay [1] (setting [2]), 89% on S. aureus DNA gyrase and 91% at E. coli Topoisomerase IV.

With `NC(CN1CCN(c2nccc3ccc(F)cc23)CC1)c1nc2c(=O)oc3ccccc3c2[nH]1` (stereo not shown) [Compound 158, 2-{1-amino-2-[4-(7-fluoroisoquinolin-1-yl)piperazin-1-yl]ethyl}[1]benzopyrano[3,4-d]imidazol-4(1H)-one hydrochloride], the IC50 against E. coli DNA gyrase turned out to be 1860 nM; in assay [1] (setting [3]) it was 2130 nM; on S. aureus DNA gyrase, 860 nM; against E. coli Topoisomerase IV, 920 nM. The inhibition at 50 µM came out at 95% against E. coli DNA gyrase, 100% in assay [1], 100% on S. aureus DNA gyrase and 97% at E. coli Topoisomerase IV.

As to `O=CNC(CN1CCN(c2nccc3ccc(F)cc23)CC1)c1nc2c(=O)oc3ccccc3c2[nH]1` (stereo not shown) [Compound 159, N-{2-[4-(7-fluoroisoquinolin-1-yl)piperazin-1-yl]-1-(4-oxo-1,4-dihydro[1]benzopyrano[3,4-d]imidazol-2-yl)ethyl}formamide hydrochloride], the IC50 at E. coli DNA gyrase came out at 1650 nM; in assay [1] (setting [3]), 1090 nM; against S. aureus DNA gyrase, 510 nM; against E. coli Topoisomerase IV, 1040 nM. The inhibition at 50 µM against E. coli DNA gyrase amounted to 94%; in assay [1], 100%; against S. aureus DNA gyrase, 100%; on E. coli Topoisomerase IV it was 98%.

For the molecule `O=c1nc(NCC(O)CN2CCN(c3nccc4ncc(F)cc34)CC2)c2cc(F)ccc2o1` (stereo not shown) [Compound 162, 6-fluoro-4-({3-[4-(3-fluoro-1,6-naphthyridin-5-yl)piperazin-1-yl]-2-hydroxypropyl}amino)-2H-1,3-benzoxazin-2-one], the IC50 is 4850 nM on E. coli DNA gyrase, 310 nM in assay [1] (setting [3]), 880 nM on S. aureus DNA gyrase and 950 nM against E. coli Topoisomerase IV. In addition, the inhibition at 50 µM against E. coli DNA gyrase came to 95%; in assay [1] (setting [2]), 100%; against S. aureus DNA gyrase, 100%; at E. coli Topoisomerase IV it was 100%.

As to `O=c1nc(NCC(O)CN2CCN(c3nccc4ncc(C(F)(F)F)cc34)CC2)c2cc(F)ccc2o1` (stereo not shown) [Compound 163, 6-fluoro-4-[(2-hydroxy-3-{4-[3-(trifluoromethyl)-1,6-naphthyridin-5-yl]piperazin-1-yl}propyl)amino]-2H-1,3-benzoxazin-2-one], the IC50 on E. coli DNA gyrase came to 4400 nM; in assay [1] (setting [3]), 1220 nM; at S. aureus DNA gyrase it was 82700 nM; against E. coli Topoisomerase IV, 9890 nM. Also, the inhibition at 50 µM against E. coli DNA gyrase stood at 80%; in assay [1] (setting [2]), 100%; at S. aureus DNA gyrase, 30%; on E. coli Topoisomerase IV, 90%.

For the molecule `O=c1cc(NCC(O)CN2CCN(c3nccc4ncccc34)CC2)c2cc(F)ccc2o1` (stereo not shown) [Compound 166, 6-fluoro-4-({2-hydroxy-3-[4-(1,6-naphthyridin-5-yl)piperazin-1-yl]propyl}amino)-2H-1-benzopyran-2-one], the half-inhibitory concentration (IC50) against E. coli DNA gyrase is 150 nM; in assay [1] (setting [3]), 300 nM; against S. aureus DNA gyrase it was 1130 nM; on E. coli Topoisomerase IV, 200 nM. Also, the inhibition at 50 µM against E. coli DNA gyrase was 80%; in assay [1], 97%; on S. aureus DNA gyrase, 70%; at E. coli Topoisomerase IV, 90%.

As to `COC1CN(c2nccc3ccc(F)cc23)CCC1NCc1cc2c(=O)oc3ccccc3c2[nH]1` (stereo not shown) [Compound 171, 2-({[1-(7-fluoroisoquinolin-1-yl)-3-methoxypiperidin-4-yl]amino}methyl)[1]benzopyrano[4,3-b]pyrrol-4(1H)-one], the inhibition at 50 µM at E. coli DNA gyrase came out at 93%; in assay [1] (setting [2]), 72%; against S. aureus DNA gyrase, 100%; on E. coli Topoisomerase IV, 97%.

`O=c1oc2ccccc2c2[nH]c(CNC3CCN(c4nccc5ccc(F)cc45)CC3F)cc12` (stereo not shown) [Compound 172, 2-({[3-fluoro-1-(7-fluoroisoquinolin-1-yl)piperidin-4-yl]amino}methyl)[1]benzopyrano[4,3-b]pyrrol-4(1H)-one]: the inhibition at 50 µM on E. coli DNA gyrase came to 94%; in assay [1] (setting [2]), 39%; against S. aureus DNA gyrase it was 64%; on E. coli Topoisomerase IV, 89%.

`CC1CN(c2nccc3ccc(F)cc23)CCC1NCc1cc2c(=O)oc3ccccc3c2[nH]1` (stereo not shown) [Compound 177, 2-({[1-(7-fluoroisoquinolin-1-yl)-3-methylpiperidin-4-yl]amino}methyl) [1]benzopyrano[4,3-b]pyrrol-4(1H)-one]: the inhibition at 50 µM at E. coli DNA gyrase worked out at 77%; in assay [1] (setting [2]), 14%; on S. aureus DNA gyrase it was 98%; on E. coli Topoisomerase IV, 74%.

Take `O=c1oc2ccccc2c2[nH]c(CNC3CCN(c4nccc5ccc(F)cc45)CC3O)cc12` (stereo not shown) [Compound 186, 2-({[1-(7-fluoroisoquinolin-1-yl)-3-hydroxypiperidin-4-yl]amino}methyl)[1]benzopyrano[4,3-b]pyrrol-4(1H)-one]: the inhibition at 50 µM is 70% against E. coli DNA gyrase, 87% in assay [1] (setting [2]), 100% against S. aureus DNA gyrase and 54% at E. coli Topoisomerase IV.

`O=c1oc2ccc(F)cc2c2cc(CNC3CCN(c4nccc5ncccc45)CC3)[nH]c12` [Compound 187, 8-fluoro-2-({[1-(1,6-naphthyridin-5-yl)piperidin-4-yl]amino}methyl)[1]benzopyrano[3,4-b]pyrrol-4(3H)-one]: the IC50 turned out to be 190 nM on E. coli DNA gyrase, 1370 nM in assay [1], 160 nM against S. aureus DNA gyrase and 1570 nM against E. coli Topoisomerase IV. For the same molecule, the inhibition at 50 µM at E. coli DNA gyrase was 79%; in assay [1] (setting [2]), 95%; at S. aureus DNA gyrase it was 95%; on E. coli Topoisomerase IV it was 82%.
